Measurements reported in ChEMBL document CHEMBL5212743, “Selectivity Literature for EUbOPEN Chemogenomics Library wave 3” (2023).
Blank lines part the entries; values can stand above or below the molecule they belong to.

What was measured:
[1] = biological target: Tyrosine-protein kinase ABL2 (Homo sapiens) (UniProt P42684); assay: Selectivity interaction (KinomeScan (DiscoverX)) EUB0000686a ABL2; settings: at 1 µM
[2] = biological target: Bromodomain-containing protein 1 (Homo sapiens) (UniProt O95696); assay: Selectivity interaction (Bromodomain panel (DSF assay)) EUB0000224e BRD1
Chain of Bromodomain-containing protein 1 (Homo sapiens) (O95696 whole entry): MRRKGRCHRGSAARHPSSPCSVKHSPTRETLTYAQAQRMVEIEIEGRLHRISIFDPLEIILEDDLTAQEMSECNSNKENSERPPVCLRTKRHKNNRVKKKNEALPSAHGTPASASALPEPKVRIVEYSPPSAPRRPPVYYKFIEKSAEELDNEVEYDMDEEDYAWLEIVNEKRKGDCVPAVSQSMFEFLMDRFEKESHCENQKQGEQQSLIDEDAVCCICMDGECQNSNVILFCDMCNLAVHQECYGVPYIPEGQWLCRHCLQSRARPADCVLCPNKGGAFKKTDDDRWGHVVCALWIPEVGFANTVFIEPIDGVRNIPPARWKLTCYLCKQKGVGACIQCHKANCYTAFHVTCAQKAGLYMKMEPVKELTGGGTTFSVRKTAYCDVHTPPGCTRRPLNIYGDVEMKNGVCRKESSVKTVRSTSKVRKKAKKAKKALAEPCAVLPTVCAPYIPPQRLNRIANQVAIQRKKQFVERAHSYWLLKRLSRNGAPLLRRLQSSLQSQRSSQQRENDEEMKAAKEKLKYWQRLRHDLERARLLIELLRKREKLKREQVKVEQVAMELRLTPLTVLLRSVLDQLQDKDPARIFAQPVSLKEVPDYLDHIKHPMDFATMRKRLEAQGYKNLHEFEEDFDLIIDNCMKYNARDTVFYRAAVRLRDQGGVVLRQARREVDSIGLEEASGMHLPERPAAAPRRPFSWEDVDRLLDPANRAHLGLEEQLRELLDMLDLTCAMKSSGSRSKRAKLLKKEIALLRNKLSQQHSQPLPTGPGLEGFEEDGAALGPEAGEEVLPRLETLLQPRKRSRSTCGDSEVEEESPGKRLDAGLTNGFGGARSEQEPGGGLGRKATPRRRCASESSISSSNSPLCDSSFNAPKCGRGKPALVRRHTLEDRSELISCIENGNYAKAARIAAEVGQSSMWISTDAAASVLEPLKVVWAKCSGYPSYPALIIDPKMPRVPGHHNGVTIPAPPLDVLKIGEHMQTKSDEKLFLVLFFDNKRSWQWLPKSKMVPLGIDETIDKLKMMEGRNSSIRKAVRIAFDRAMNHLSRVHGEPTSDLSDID

[3] = biological target: Chromatin remodeling regulator CECR2 (Homo sapiens, UniProt Q9BXF3); assay: Selectivity interaction (Bromodomain panel (DSF assay)) EUB0000224e CECR2
[4] = biological target: Polycomb protein EED (Homo sapiens) (UniProt O75530); assay: Selectivity interaction (Reader proteins panel (DSF assay)) EUB0000034d EED
[5] = biological target: WD repeat-containing protein 5 (Homo sapiens) (UniProt P61964); assay: Selectivity interaction (Reader proteins panel (DSF assay)) EUB0000034d WDR5
[6] = biological target: Growth/differentiation factor 2 (Homo sapiens) (UniProt Q9UK05); assay: Selectivity interaction (Reader proteins panel (DSF assay)) EUB0000034d GDF2
Chain of Growth/differentiation factor 2 (Homo sapiens) (Q9UK05 whole entry): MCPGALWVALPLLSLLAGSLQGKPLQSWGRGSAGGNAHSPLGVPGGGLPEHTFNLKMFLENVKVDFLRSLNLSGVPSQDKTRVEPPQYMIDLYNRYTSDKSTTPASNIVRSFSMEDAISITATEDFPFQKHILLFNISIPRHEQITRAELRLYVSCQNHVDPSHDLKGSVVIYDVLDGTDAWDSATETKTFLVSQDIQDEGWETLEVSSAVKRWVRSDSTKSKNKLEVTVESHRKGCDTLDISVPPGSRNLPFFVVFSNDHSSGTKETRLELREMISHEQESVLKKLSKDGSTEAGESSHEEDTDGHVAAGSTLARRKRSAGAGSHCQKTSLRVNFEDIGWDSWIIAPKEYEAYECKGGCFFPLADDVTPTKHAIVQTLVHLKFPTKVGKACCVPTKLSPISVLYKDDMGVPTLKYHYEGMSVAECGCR

Peregrin (Homo sapiens) = Peregrin (Homo sapiens) (UniProt P55201); assay: Selectivity interaction (Reader proteins panel (DSF assay)) EUB0000034d BRPF1
Chain of Peregrin (Homo sapiens) (P55201 whole entry): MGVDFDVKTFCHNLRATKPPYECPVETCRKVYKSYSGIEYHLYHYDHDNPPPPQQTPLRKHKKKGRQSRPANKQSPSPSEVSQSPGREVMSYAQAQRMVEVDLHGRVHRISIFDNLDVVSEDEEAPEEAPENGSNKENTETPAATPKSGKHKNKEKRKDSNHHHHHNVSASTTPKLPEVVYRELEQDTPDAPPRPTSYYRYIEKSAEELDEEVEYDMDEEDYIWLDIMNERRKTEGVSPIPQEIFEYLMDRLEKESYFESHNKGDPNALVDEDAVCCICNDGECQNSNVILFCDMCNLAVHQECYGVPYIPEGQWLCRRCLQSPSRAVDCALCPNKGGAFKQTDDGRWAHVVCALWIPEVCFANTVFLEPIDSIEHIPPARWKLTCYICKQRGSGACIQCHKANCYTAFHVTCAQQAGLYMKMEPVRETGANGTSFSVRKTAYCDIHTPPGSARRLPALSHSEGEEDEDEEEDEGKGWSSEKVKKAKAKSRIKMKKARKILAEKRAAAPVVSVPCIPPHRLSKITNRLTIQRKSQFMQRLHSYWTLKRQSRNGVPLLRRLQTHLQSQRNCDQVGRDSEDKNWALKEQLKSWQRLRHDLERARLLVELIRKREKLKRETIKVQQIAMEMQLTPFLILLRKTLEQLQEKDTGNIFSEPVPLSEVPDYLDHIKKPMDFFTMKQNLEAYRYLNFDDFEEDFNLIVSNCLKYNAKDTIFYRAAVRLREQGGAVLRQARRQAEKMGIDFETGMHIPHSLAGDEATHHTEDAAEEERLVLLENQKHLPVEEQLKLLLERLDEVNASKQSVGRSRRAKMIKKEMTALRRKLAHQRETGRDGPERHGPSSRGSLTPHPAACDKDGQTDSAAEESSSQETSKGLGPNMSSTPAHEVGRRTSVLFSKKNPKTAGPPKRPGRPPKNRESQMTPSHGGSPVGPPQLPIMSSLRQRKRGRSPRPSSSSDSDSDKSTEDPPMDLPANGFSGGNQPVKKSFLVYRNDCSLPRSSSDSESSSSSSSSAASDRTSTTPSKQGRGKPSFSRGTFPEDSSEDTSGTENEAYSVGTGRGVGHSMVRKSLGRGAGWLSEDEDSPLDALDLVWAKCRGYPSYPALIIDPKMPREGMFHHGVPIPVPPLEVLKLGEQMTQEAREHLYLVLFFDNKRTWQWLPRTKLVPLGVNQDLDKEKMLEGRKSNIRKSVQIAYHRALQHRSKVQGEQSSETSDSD

[7] = biological target: Histone-lysine N-methyltransferase SETD2 (Homo sapiens, UniProt Q9BYW2); assay: Selectivity interaction (Methyltransferase panel) EUB0000034d SETD2; settings: at 10 µM
[8] = biological target: E3 ubiquitin-protein ligase UHRF1 (Homo sapiens) (UniProt Q96T88); assay: Selectivity interaction (Reader proteins panel (DSF assay)) EUB0000034d UHRF1
Chain of E3 ubiquitin-protein ligase UHRF1 (Homo sapiens) (Q96T88 whole entry, the tested form may be a part): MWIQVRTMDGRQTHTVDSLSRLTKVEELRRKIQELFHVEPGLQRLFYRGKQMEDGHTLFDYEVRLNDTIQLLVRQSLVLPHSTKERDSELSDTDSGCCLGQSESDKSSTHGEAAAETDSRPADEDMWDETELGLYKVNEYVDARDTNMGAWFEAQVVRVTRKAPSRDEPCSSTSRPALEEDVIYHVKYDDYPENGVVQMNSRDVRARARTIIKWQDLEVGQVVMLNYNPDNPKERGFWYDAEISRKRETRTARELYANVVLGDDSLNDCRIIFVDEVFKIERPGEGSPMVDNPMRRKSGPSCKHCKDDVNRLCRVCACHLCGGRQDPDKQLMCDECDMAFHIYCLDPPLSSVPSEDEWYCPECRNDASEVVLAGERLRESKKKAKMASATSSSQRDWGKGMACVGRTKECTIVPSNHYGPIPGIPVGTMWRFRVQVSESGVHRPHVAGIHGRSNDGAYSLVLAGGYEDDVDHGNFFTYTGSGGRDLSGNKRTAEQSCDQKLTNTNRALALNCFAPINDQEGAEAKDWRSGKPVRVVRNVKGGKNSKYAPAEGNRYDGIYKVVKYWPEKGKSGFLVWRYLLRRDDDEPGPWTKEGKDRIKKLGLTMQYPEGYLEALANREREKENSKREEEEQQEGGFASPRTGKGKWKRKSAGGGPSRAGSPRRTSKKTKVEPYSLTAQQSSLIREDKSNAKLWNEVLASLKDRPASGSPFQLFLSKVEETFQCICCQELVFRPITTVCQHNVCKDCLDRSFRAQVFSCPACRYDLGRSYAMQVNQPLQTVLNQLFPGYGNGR

[9] = biological target: AT-rich interactive domain-containing protein 4A (Homo sapiens) (UniProt P29374); assay: Selectivity interaction (Reader proteins panel (DSF assay)) EUB0000034d ARID4A
[10] = biological target: RNA-binding protein FXR1 (Homo sapiens) (UniProt P51114); assay: Selectivity interaction (Reader proteins panel (DSF assay)) EUB0000034d FXR1
Chain of RNA-binding protein FXR1 (Homo sapiens) (P51114 whole entry, the tested form may be a part): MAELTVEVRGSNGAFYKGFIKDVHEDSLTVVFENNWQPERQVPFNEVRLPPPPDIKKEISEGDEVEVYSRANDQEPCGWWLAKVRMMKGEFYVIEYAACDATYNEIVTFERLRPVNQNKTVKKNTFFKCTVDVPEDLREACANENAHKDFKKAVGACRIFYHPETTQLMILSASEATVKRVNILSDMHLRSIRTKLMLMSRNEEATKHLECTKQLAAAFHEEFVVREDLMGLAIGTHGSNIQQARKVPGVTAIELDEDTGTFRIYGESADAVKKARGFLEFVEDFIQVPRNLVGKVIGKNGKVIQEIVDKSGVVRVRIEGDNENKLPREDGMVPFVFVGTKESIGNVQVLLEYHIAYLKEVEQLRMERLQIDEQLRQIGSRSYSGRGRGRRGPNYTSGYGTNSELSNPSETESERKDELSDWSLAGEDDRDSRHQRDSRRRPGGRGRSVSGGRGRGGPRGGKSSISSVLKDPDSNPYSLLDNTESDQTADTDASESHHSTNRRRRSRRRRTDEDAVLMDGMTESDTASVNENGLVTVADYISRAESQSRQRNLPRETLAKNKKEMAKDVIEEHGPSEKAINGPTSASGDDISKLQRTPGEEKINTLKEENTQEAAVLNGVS

[11] = biological target: Staphylococcal nuclease domain-containing protein 1 (Homo sapiens) (UniProt Q7KZF4); assay: Selectivity interaction (Reader proteins panel (DSF assay)) EUB0000034d SND1
[12] = biological target: Tudor domain-containing protein 3 (Homo sapiens) (UniProt Q9H7E2); assay: Selectivity interaction (Reader proteins panel (DSF assay)) EUB0000034d TDRD3
Chain of Tudor domain-containing protein 3 (Homo sapiens) (Q9H7E2 whole entry, the tested form may be a part): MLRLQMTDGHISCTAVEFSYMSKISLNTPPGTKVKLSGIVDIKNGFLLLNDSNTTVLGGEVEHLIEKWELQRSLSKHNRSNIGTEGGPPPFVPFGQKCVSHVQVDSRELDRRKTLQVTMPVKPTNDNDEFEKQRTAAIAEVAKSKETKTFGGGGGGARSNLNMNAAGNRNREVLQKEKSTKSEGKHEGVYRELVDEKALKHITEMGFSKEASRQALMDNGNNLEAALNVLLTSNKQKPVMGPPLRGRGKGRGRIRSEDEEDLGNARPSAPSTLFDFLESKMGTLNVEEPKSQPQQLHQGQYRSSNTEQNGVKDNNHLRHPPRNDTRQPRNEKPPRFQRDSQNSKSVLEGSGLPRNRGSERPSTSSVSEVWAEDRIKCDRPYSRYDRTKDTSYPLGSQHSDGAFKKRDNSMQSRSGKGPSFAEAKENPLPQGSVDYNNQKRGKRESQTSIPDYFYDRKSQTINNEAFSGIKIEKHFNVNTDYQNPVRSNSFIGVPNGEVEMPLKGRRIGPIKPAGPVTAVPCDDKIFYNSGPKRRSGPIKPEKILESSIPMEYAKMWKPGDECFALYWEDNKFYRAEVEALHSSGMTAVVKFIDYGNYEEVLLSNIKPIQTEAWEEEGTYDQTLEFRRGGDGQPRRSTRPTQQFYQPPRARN

- % of control [1]: 5.8%
Structure (SMILES): CN(C)C(=O)c1cc2cnc(Nc3ccc(N4CCNCC4)cn3)nc2n1C1CCCC1

- dTm [2]: 2 K
- dTm [3]: 2 K
Structure (SMILES): COc1ccccc1C(=O)Nc1cc2c(cc1N1CCCC1)n(C)c(=O)n2C

- dTm [4]: < 2 K
- dTm [5]: < 2 K
- dTm [6]: < 2 K
- dTm (Peregrin (Homo sapiens)): < 2 K
- % activity remaining [7]: 80%
- dTm [8]: < 2 K
- dTm [9]: < 2 K
- dTm [10]: < 2 K
- dTm [11]: < 2 K
- dTm [12]: < 2 K
Structure (SMILES): CC(C)Oc1ccc(-c2c[nH]cc2CN(C)CCN)cc1
